Read-outs that look alike come from different tables or passages of the source.
Molecular target: T1, Akt1 (Homo sapiens, UniProt P31749)
T1 construct: made in house; host or cells: Sf9 insect cells (baculovirus, pBlueBacHis2B)
Assay: Akt1 kinase assay (33P phosphorylation of biotinylated peptide, Flash plates)
Format: biochemical
Conditions: for inhibition at 1.1 µg/mL: assayed at a concentration of 1.1 mcg/mL
Source text: The assay described below measures the phosphorylation of a biotinylated peptide by active recombinant Akt1 and other kinase isoforms. The biotinylated peptide contains a consensus sequence derived from Akt substrate Gsk3 (Glycogen synthase kinase 3). The ^33P-labeled peptide substrate was captured by streptavidin-coated Flash plates.
Active recombinant Akt1 was expressed in Sf9 insect cells and purified as described by Kumar et al., Biochim. Biophys. Acta. Jun. 15, 2001, 1526(3), 257-268. Biotinylated peptide of the sequence Bio-ahx-RPRAASF was purchased from Syn Pep (Dublin, Calif., USA).
Cloning and Expression of Human Akt1 Sf9 Cells
Human Akt1 cDNA was amplified from a marathon-ready human lung cDNA library (Clonetech) using nested oligo primers as described below. The first round of amplification was carried out using the following primers; Akt1F1 ([…]) and Akt1R1 (TCCATC […]) and for the second round amplification, the primers of the following sequence were used; Akt1F2 (GGATCCTCGG […]) and AKT1R2 (GGTACCATCGTC […]). The PCR product was subcloned into pCRScript plasmid as a BamHI/KpnI fragment and the sequence of the cDNA was confirmed by DNA sequencing. This plasmid was used as a template for reamplification of Akt1 using appropriate primers for subcloning into pBlueBaHis2B into BamH1/EcoRI sites to generate an in frame fusion to (His)6 tag and an anti-Xpress antibody epitope tag at the N-terminus. This construct was sequenced to verify the junction sequences and used for generating a recombinant baculovirus. Growth of the recombinant virus, amplification and determination of viral titer were carried out according to the instructions from the manufacturer (InVitrogen, CA).
Purification of Akt1 from Sf9 Cells
Viral stocks were used to infect large scale Sf9 cells at a multiplicity of infection (MOI) of 2.5. Cells were maintained at 27° C. for 60 h and okadaic acid was added to the cultures to a concentration of 50 nM. Cells were harvested 4 h hours later by centrifugation at 1200 rpm for 30 min followed by freezing at −80° C. until further use. All purification steps were carried out at 4° C. Whole cell pellets were suspended in buffer A (20 mM sodium phosphate buffer pH 7.8, 500 mM NaCl, 1 mM sodium vanadate, 5 mM sodium fluoride, 40 mM β-glycerophosphate, 10 mM imidazole and protease inhibitor cocktail) and lysed using a microfluidizer. The cell extract was centrifuged at 16,000×g for 10 min to remove the debris and directly loaded onto Ni-NTA Superflow resin using a FPLC pump operated at 1 ml/min. The column was washed once with buffer A, once with wash buffer B (20 mM sodium phosphate pH 6.0, 1 mM sodium vanadate, 5 mM sodium fluoride and protease cocktail) and once with wash buffer B containing 0.05% Tween-20 followed by washing with buffer A until OD260 returned to basal level. Proteins were eluted with buffer A containing 200 mM imidazole. Fractions were analyzed by electrophoresis on 10% denaturing polyacrylamide gels and fractions containing 85% pure protein band at 60 KDa were pooled and dialyzed against buffer C (20 mM Tris-HCl pH 7.5, 0.5 mM EDTA,-2 mM DTT, 145 mM NaCl, 0.1 mM sodium vanadate, 5 mM sodium fluoride, 10 mM, β-glycerophosphate and 20% glycerol). Purified protein was stored as aliquots at −80° C. Protein concentrations were determined using BCA protein assay reagent A (Catalog #23228). To examine the identity of the proteins, 2 μg of purified protein was electrophoresed on SDS-polyacrylamide gels and stained with coomassie blue dye or transferred to nitrocellulose membrane and probed with anti-Akt and anti-phospho-specific Akt antibodies using enhanced chemiluminescence (ECL) reagent according to the protocol described by the manufacturer (Amersham).
The kinase assay was performed in 96 well plates at room temperature. Assay solutions and plates were preincubated at room temperature for 5 min. […]

[1] = read-out: IC50 rating (AKT1 inhibition)

T1 sequence (P31749 whole entry): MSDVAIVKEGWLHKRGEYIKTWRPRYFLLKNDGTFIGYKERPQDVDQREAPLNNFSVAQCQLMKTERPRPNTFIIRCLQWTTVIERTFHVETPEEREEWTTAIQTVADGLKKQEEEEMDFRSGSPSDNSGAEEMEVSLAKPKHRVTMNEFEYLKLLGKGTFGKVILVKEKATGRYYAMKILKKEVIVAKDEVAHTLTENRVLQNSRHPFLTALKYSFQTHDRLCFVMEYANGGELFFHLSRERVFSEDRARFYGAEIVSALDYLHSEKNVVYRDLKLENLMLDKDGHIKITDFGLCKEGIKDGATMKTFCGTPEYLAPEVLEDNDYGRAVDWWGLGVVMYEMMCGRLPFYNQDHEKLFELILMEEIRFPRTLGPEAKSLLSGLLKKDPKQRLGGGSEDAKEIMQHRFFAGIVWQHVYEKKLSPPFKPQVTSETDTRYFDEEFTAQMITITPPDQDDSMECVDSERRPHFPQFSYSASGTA

Row | SMILES | IC50 [1] | inhibition at 1.1 µg/mL | IC50 (read-out: IC50 (AKT1 inhibition))
1 | Cc1n[nH]c2ccc(-c3nnc(N)c(N4CCNCC4)n3)cc12 [Compound 1, 6-amino-3-(3-methylindazol-5-yl)-5-(piperazin-1-yl)-[1,2,4]triazine] | 100 to 1000 nM | – | –
2 | Cc1n[nH]c2ccc(-c3nnc(N)c(O)n3)cc12 [Compound 2] | > 1000 nM | – | –
3 | Cc1n[nH]c2ccc(-c3nnc(NCc4ccccc4)c(N4CCNCC4)n3)cc12 [Compound 3, 6-benzylamino-3-(3-methylindazol-5-yl)-5-(piperazin-1-yl)-[1,2,4]triazine] | < 100 nM | > 90% | –
4 | Cc1n[nH]c2ccc(-c3nnc(N(Cc4ccccc4)Cc4ccccc4)c(N4CCNCC4)n3)cc12 [Compound 4, 6-dibenzylamino-3-(3-methylindazol-5-yl)-5-(piperazin-1-yl)-[1,2,4]triazine] | > 1000 nM | – | –
5 | Cc1n[nH]c2ccc(-c3nnc(N)c(N4CCN[C@@H](Cc5ccccc5)C4)n3)cc12 [Compound 5, 6-amino-5-[(S)-3-benzylpiperazin-1-yl]-3-(3-methylindazol-5-yl)-[1,2,4]triazine] | < 100 nM | > 90% | –
6 | Cc1n[nH]c2ccc(-c3nnc(N)c(N4CCN[C@H](c5ccccc5)C4)n3)cc12 [Compound 6, 6-amino-3-(3-methylindazol-5-yl)-5-[(R)-3-phenylpiperazin-1-yl]-[1,2,4]triazine] | 100 to 1000 nM | – | –
7 | Cc1n[nH]c2ccc(-c3nnc(N)c(N4CCN[C@@H](C(C)C)C4)n3)cc12 [Compound 7, 6-amino-5-[(S)-3-isopropylpiperazin-1-yl]-3-(3-methylindazol-5-yl)-[1,2,4]triazine] | < 100 nM | > 90% | –
8 | Cc1n[nH]c2ccc(-c3nnc(N)c(N4CCN[C@@H](CC(C)C)C4)n3)cc12 [Compound 8, 6-amino-5-[(S)-3-isobutylpiperazin-1-yl]-3-(3-methylindazol-5-yl)-[1,2,4]triazine] | < 100 nM | > 90% | –

The next lines start with the values.

Row | IC50 [1] | inhibition at 1.1 µg/mL | IC50 (read-out: IC50 (AKT1 inhibition)) | SMILES
9 | > 1000 nM | – | – | Cc1n[nH]c2ccc(-c3nnc(N)c(N4CCN[C@H](C)C4)n3)cc12 [Compound 9, 6-amino-3-(3-methylindazol-5-yl)-5-[(R)-3-methylpiperazin-1-yl]-[1,2,4]triazine]
10 | 100 to 1000 nM | > 90% | – | Cc1n[nH]c2ccc(-c3nnc(N)c(N4CCCNCC4)n3)cc12 [Compound 10, 6-amino-5-([1,4]diazepan-1-yl)-3-(3-methylindazol-5-yl)-[1,2,4]triazine]
11 | > 1000 nM | – | – | Cc1n[nH]c2ccc(-c3nnc(N)c(N4CC5CC4CN5)n3)cc12 (stereo not shown) [Compound 11, 6-amino-5-(2,5-diazabicyclo[2.2.1]hept-2-yl)-3-(3-methylindazol-5-yl)-[1,2,4]triazine]
12 | < 100 nM | > 90% | 2.6 nM | Cc1n[nH]c2ccc(-c3nncc(N4CCN[C@@H](Cc5ccccc5)C4)n3)cc12 [Compound 12, 3-(3-methylindazol-5-yl)-5-[(S)-3-benzylpiperazin-1-yl]-[1,2,4]triazine]
13 | < 100 nM | > 90% | – | Cc1n[nH]c2ccc(-c3nnc(Cl)c(N4CCN[C@@H](Cc5ccccc5)C4)n3)cc12 [Compound 13, 5-[(S)-3-benzylpiperazin-1-yl]-6-chloro-3-(3-methylindazol-5-yl)-[1,2,4]triazine]
14 | 100 to 1000 nM | – | – | Cc1n[nH]c2ccc(-c3nnc(N)c(N4CCN[C@@H](C)C4)n3)cc12 [Compound 14, 6-amino-3-(3-methylindazol-5-yl)-5-[(S)-3-methylpiperazin-1-yl]-[1,2,4]triazine]
15 | 100 to 1000 nM | – | – | Cc1n[nH]c2ccc(-c3nnc(NCc4ccccc4)c(N4CCN[C@@H](C)C4)n3)cc12 [Compound 15, 6-benzylamino-3-(3-methylindazol-5-yl)-5-[(S)-3-methylpiperazin-1-yl]-[1,2,4]triazine]
16 | < 100 nM | > 90% | – | Cc1n[nH]c2ccc(-c3nnc(NCc4ccccc4)c(N4CCN[C@@H](C(C)C)C4)n3)cc12 [Compound 16, 6-benzylamino-5-[(S)-3-isopropylpiperazin-1-yl]-3-(3-methylindazol-5-yl)-[1,2,4]triazine]

From patent publication US7528132B2, “Kinase inhibitors” (Schering Corporation, priority 2005, dated 2009)
